Experimental data from patent US8927560B2, “4-Aza-2, 3-didehydropodophyllotoxin compounds and process for the preparation thereof” (Council of Scientific & Industrial Research, priority 2010, dated 2015).

Assays:
MCF7 = assay: SRB in vitro cytotoxicity assay, MCF7 breast cancer cells; format: cell-based; details: Homo sapiens, 48 h drug exposure, read-out: In vitro anticancer activity GI50, Breast MCF7
Description: (§1) Compounds 4a-4z and 4aa-4ae have been evaluated for their in vitro cytotoxicity in selected human cancer cell lines i.e., colon (Colo205), lung (Hop-62, A549), cervix (SiHa), prostate (PC3), oral (KB, DWD, Gurav), Ovarian (A-2780) and breast (MCF7, Zr-75-1) origin by employing the sulforhodamine B (SRB) assay method (Skehn, P.; Storeng, R.; Scudiero, A.; Monks, J.; MeMohan, D.; Vistica, D.; Jonathan, T. W.; Bokesch, H.; Kenney, S.; Boyd M. R. J. Natl. Cancer Inst. 1990, 82, 1107).
(§2) The synthesized compounds have been evaluated for their in vitro cytotoxicity in human cancer cell lines. A protocol of 48 h continuous drug exposure has been used and a sulforhodamine B (SRB) protein assay has been used to estimate cell viability or growth. The cell lines were grown in DMEM medium containing 10% fetal bovine serum and 2 mM L-glutamine and were inoculated into 96 well microtiter plates in […] at plating densities depending on the doubling time of individual cell lines. The microliter plates were incubated at 37_C, 5% CO2, 95% air, and 100% relative humidity for 24 h prior to addition of experimental drugs. Aliquots of […] of the drug dilutions were added to the appropriate microliter wells already containing […] of cells, suiting in the required final drug concentrations. For each compound four concentrations (0.1, 1, 10 and 100 uM) were evaluated and each was done in triplicate wells. Plates were incubated further for 48 h and assay was terminated by the addition of […] of cold trichloro acetic acid (TCA) (final concentration, 10% TCA) and incubated for 60 min at 4_C. The plates were washed five times with tap water and airdried. Sulforhodamine B (SRB) solution ([…]) at 0.4% (w/v) in 1% acetic acid was added to each of the cells, and plates were incubated for 20 min at room temperature. The residual dye was removed by washing five times with 1% acetic acid. The plates were airdried. Bound stain was subsequently eluted with 10 mM trizma base, and the absorbance was read on an ELISA plate reader at a wavelength of 540 nm with 690 nm reference wavelengths. Percent growth was calculated on a plate by plate basis for test wells relative to control wells. The above determinations were repeated three times. Percentage growth was expressed as the (ratio of average absorbance of the test well to the average absorbance of the control wells)*100. Growth inhibition of 50% (GI50) was calculated from [(Ti−Tz)/(C−Tz)]*100 ¼ 50, which is the drug concentration resulting in a 50% reduction in the net protein increase (as measured by SRB staining) in control cells during the drug incubation. Where, Tz ¼ Optical density at time zero, OD of control ¼ C, and OD of test growth in the presence of drug ¼ Ti.

Colo 205 = assay: SRB in vitro cytotoxicity assay, Colo 205 colon cancer cells; format: cell-based; details: Homo sapiens, 48 h drug exposure, read-out: In vitro anticancer activity GI50, Colon Colo 205
Description: as §1, §2

DWD = assay: SRB in vitro cytotoxicity assay, DWD oral cancer cells; format: cell-based; details: Homo sapiens, 48 h drug exposure, read-out: In vitro anticancer activity GI50, Oral DWD
Description: as §1, §2

Zr-75-1 = assay: SRB in vitro cytotoxicity assay, Zr-75-1 breast cancer cells; format: cell-based; details: Homo sapiens, 48 h drug exposure, read-out: In vitro anticancer activity GI50, Breast Zr-75-1
Description: as §1, §2

Gurav = assay: SRB in vitro cytotoxicity assay, Gurav oral cancer cells; format: cell-based; details: Homo sapiens, 48 h drug exposure, read-out: In vitro anticancer activity GI50, Oral Gurav
Description: as §1, §2

KB = assay: SRB in vitro cytotoxicity assay, KB oral cancer cells; format: cell-based; details: Homo sapiens, 48 h drug exposure, read-out: In vitro anticancer activity GI50, Oral KB
Description: as §1, §2

A-549 = assay: SRB in vitro cytotoxicity assay, A-549 lung cancer cells; format: cell-based; details: Homo sapiens, A549, 48 h drug exposure, read-out: In vitro anticancer activity GI50, Lung A-549
Description: as §1, §2

Hop62 = assay: SRB in vitro cytotoxicity assay, Hop62 lung cancer cells; format: cell-based; details: Homo sapiens, HOP-62, 48 h drug exposure, read-out: In vitro anticancer activity GI50, Lung Hop62
Description: as §1, §2

PC3 = assay: SRB in vitro cytotoxicity assay, PC3 prostate cancer cells; format: cell-based; details: Homo sapiens, PC-3, 48 h drug exposure, read-out: In vitro anticancer activity GI50, Prostate PC3
Description: as §1, §2

A-2780 = assay: SRB in vitro cytotoxicity assay, A-2780 ovarian cancer cells; format: cell-based; details: Homo sapiens, A2780, 48 h drug exposure, read-out: In vitro anticancer activity GI50, Ovarian A-2780
Description: as §1, §2

SiHa = assay: SRB in vitro cytotoxicity assay, SiHa cervix cancer cells; format: cell-based; details: Homo sapiens, 48 h drug exposure, read-out: In vitro anticancer activity GI50, Cervix SiHa
Description: as §1, §2

Row | melting point | SMILES | GI50 (MCF7) | GI50 (Colo 205) | GI50 (DWD) | GI50 (Zr-75-1) | GI50 (Gurav) | GI50 (KB) | GI50 (A-549) | GI50 (Hop62) | GI50 (PC3) | GI50 (A-2780) | GI50 (SiHa)
1 | 219 to 221 °C | COc1ccc(-c2noc3c2C(c2ccc(OC)c(O)c2)C2=C(COC2=O)N3)cc1 (stereo not drawn) [Compound 4ab, 4-(3-hydroxy-4-methoxyphenyl)-3-(4-methoxyphenyl)-4,5,7,8-tetrahydrofuro[3′,4′:5,6]pyrido[3,2-d]isoxazol-5-one] | 190 nM | 2700 nM | < 100 nM | 140 nM | 140 nM | 170 nM | < 100 nM | 140 nM | 160 nM | 160 nM | 
2 | 297 to 299 °C | COc1ccc(C2C3=C(COC3=O)Nc3ccc4cc[nH]c4c32)cc1O (stereo not drawn) [Compound 4g, 10-(3-hydroxy-4-methoxyphenyl)-6,7,9,10-tetrahydro-1H-furo[3,4-b]pyrrolo[2,3-f]quinolin-9-one] | 2900 nM | 190 nM |  | 2800 nM | 2300 nM | 2200 nM | 2300 nM | 2200 nM |  | 2700 nM | 
3 | 170 to 172 °C | COc1cc(C2C3=C(COC3=O)Nc3ccc4cc[nH]c4c32)ccc1F (stereo not drawn) [Compound 4h, 10-(4-fluoro-3-methoxyphenyl)-6,7,9,10-tetrahydro-1H-furo[3,4-b]pyrrolo[2,3-f]quinolin-9-one] | 2100 nM |  | 2600 nM | 2500 nM | 2500 nM | 170 nM | 2200 nM | 2600 nM |  | 2300 nM | 
4 |  | COc1cc(C2C3=C(COC3=O)Nc3ccc4cc(C)[nH]c4c32)cc(OC)c1OC (stereo not drawn) [Compound 4j, 2-methyl-10-(3,4,5-trimethoxyphenyl)-6,7,9,10-tetrahydro-1H-furo[3,4-b]pyrrolo[2,3-f]quinolin-9-one] |  |  |  |  |  |  |  |  |  |  | 2600 nM
5 | 293 to 294 °C | COc1ccc(C2C3=C(COC3=O)Nc3ccc4cc(C)[nH]c4c32)cc1O (stereo not drawn) [Compound 4k, 10-(3-hydroxy-4-methoxyphenyl)-2-methyl-6,7,9,10-tetrahydro-1H-furo[3,4-b]pyrrolo[2,3-f]quinolin-9-one] | 2000 nM | 2700 nM | 2000 nM | 170 nM | 170 nM | 2100 nM | < 100 nM | 160 nM | 170 nM | 190 nM | 
6 | 198 to 199 °C | COc1cc(C2C3=C(COC3=O)Nc3ccc4cc(C)[nH]c4c32)ccc1F (stereo not drawn) [Compound 4l, 10-(4-fluoro-3-methoxyphenyl)-2-methyl-6,7,9,10-tetrahydro-1H-furo[3,4-b]pyrrolo[2,3-f]quinolin-9-one] | 2600 nM |  | 2100 nM |  | 2500 nM |  |  | 2400 nM |  | 2400 nM | 
7 | 238 to 240 °C | COc1cc(C2C3=C(COC3=O)Nc3ccc4cn[nH]c4c32)ccc1O (stereo not drawn) [Compound 4o, 10-(4-hydroxy-3-methoxyphenyl)-6,7,9,10-tetrahydro-1H-furo[3,4-b]pyrazolo[3,4-f]quinolin-9-one] | 2000 nM | 2000 nM |  | 2100 nM |  |  |  | 2800 nM | 2300 nM |  | 
8 | 307 to 309 °C | COc1cc(C2C3=C(COC3=O)Nc3ccc4cn[nH]c4c32)ccc1F (stereo not drawn) [Compound 4q, 10-(4-fluoro-3-methoxyphenyl)-6,7,9,10-tetrahydro-1H-furo[3,4-b]pyrazolo[3,4-f]quinolin-9-one] | 2700 nM |  |  |  | 2600 nM |  | 2300 nM |  |  |  | 
9 | 217 to 218 °C | COc1ccc(C2C3=C(COC3=O)Nc3ccc4cn[nH]c4c32)cc1[N+](=O)[O-] (stereo not drawn) [Compound 4r, 10-(4-methoxy-3-nitrophenyl)-6,7,9,10-tetrahydro-1H-furo[3,4-b]pyrazolo[3,4-f]quinolin-9-one] | 160 nM | 2200 nM | < 100 nM | 140 nM | 140 nM | 120 nM | < 100 nM | 130 nM | 160 nM | 130 nM | 
10 | 296 to 297 °C | COc1cc(C2C3=C(COC3=O)Nc3ccc4ncsc4c32)ccc1O (stereo not drawn) [Compound 4t, 10-(4-hydroxy-3-methoxyphenyl)-6,7,9,10-tetrahydrofuro[3,4-b][1,3]thiazolo[5,4-f]quinolin-9-one] | 150 nM | 2200 nM | < 100 nM | < 100 nM | 140 nM | 150 nM | < 100 nM | 120 nM | 160 nM | 150 nM | 

Row | SMILES | melting point | GI50 (MCF7) | GI50 (Colo 205) | GI50 (DWD) | GI50 (Zr-75-1) | GI50 (Gurav) | GI50 (KB) | GI50 (A-549) | GI50 (Hop62) | GI50 (PC3) | GI50 (A-2780) | GI50 (SiHa)
11 | COc1nc2c(c(OC)n1)C(c1cc(OC)c(OC)c(OC)c1)C1=C(COC1=O)N2 (stereo not drawn) [Compound 4a, 2,4-dimethoxy-5-(3,4,5-trimethoxyphenyl)-5,6,8,9-tetrahydrofuro[3′,4′:5,6]pyrido[2,3-d]pyrimidin-6-one] | 299 to 300 °C | 2400 nM | 160 nM | 2400 nM | 2200 nM | 2000 nM | 170 nM | 2100 nM | 2500 nM | 2400 nM |  | 
12 | COc1cc(C2C3=C(COC3=O)Nc3onc(-c4ccc(Cl)cc4)c32)cc(OC)c1OC (stereo not drawn) [Compound 4ac, 3-(4-chlorophenyl)-4-(3,4,5-trimethoxyphenyl)-4,5,7,8-tetrahydrofuro[3′,4′:5,6]pyrido[3,2-d]isoxazol-5-one] | 248 to 249 °C | 2300 nM |  | 2000 nM | 190 nM | 180 nM | 2400 nM | < 100 nM | 2500 nM | 2300 nM | 2000 nM | 2300 nM
13 | COc1cc(C2C3=C(COC3=O)Nc3ccc4cc[nH]c4c32)cc(OC)c1OC (stereo not drawn) [Compound 4e, 10-(3,4,5-trimethoxyphenyl)-6,7,9,10-tetrahydro-1H-furo[3,4-b]pyrrolo[2,3-f]quinolin-9-one] | 299 to 301 °C |  | 2300 nM | 2800 nM | 2800 nM |  | 2000 nM | 2400 nM |  |  | 2700 nM | 
14 | COc1cc(C2C3=C(COC3=O)Nc3ccc4cc[nH]c4c32)ccc1O (stereo not drawn) [Compound 4f, 10-(4-hydroxy-3-methoxyphenyl)-6,7,9,10-tetrahydro-1H-furo[3,4-b]pyrrolo[2,3-f]quinolin-9-one] | 301 to 303 °C | 2300 nM | 2500 nM | 2400 nM | 2000 nM | 2600 nM |  |  |  |  |  | 
15 | COc1cc(C2C3=C(COC3=O)Nc3ccc4ncsc4c32)cc(OC)c1OC (stereo not drawn) [Compound 4s, 10-(3,4,5-trimethoxyphenyl)-6,7,9,10-tetrahydrofuro[3,4-b][1,3]thiazolo[5,4-f]quinolin-9-one] | 309 to 310 °C |  | 2500 nM | 2500 nM | 2100 nM |  | 2100 nM | 2400 nM |  |  | 2300 nM | 
